Test results reported in patent US9138438B2, “Method for protecting a retinal neuronal cell” (ASAHI GLASS COMPANY, LIMITED, priority 2005, dated 2015).

Test system: rat fetal retinal neuronal cells
Test: Glutamate-induced retinal neuronal cell death, trypan blue survival rate
Assay type: cell-based
Conditions: test compound 0.1 nM to 100 nM; 24 hours pre-incubation, 1 mM glutamate 10 minutes, then 1 hour with test compound; survival rate by trypan blue
Experimental: In order to find a new pharmaceutical application of a prostaglandin F2α derivative, by using rat fetal retinal neuronal cells, an effect of a prostaglandin F2α derivative on protecting retinal neuronal cells against glutamate-induced retinal neuronal cell death was evaluated and examined.
Incidentally, as the prostaglandin F2α derivative which is a test compound, 16-phenoxy-15-deoxy-15,15-difluoro-17,18,19,20-tetranor-prostaglandin F2α was used.
A pregnant SD rat was subjected to laparotomy under systemic anesthesia, and the uterus was transferred to a dish containing Hanks's balanced salt solution (HBSS). A rat fetus was isolated from the uterus, and the eyeballs of the rat fetus were taken out. The retina was isolated from the eyeballs under a stereoscopic microscope and cut into pieces with a surgical knife. […] After the cell number was counted with a hemocytometer, an MEM medium containing 10% FBS was added thereto, whereby a cell suspension with a cell density of 0.8×10^6 cells/mL was obtained. […]
At day 10 of culture, the plastic discs in which cells were inoculated and cultured were transferred to the HS-containing MEM medium containing the test compound and incubated for 24 hours (37° C., 5% CO2). […] After the cells were washed with a physiological saline solution, stained cells and unstained cells were counted under an inverted microscope. […]

O=C(O)CCC/C=C\C[C@@H]1[C@@H](/C=C/C(F)(F)COc2ccccc2)[C@H](O)C[C@@H]1O [test compound, 16-phenoxy-15-deoxy-15,15-difluoro-17,18,19,20-tetranor-prostaglandin F2α]
glutamate-induced retinal neuronal cell death: inhibited in a concentration-dependent manner
